Measured values: publication PMC11641365, “Evaluation of In Vitro Biological Activity of Flavanone/Chromanone Derivatives: Molecular Analysis of Anticancer Mechanisms in Colorectal Cancer” (International Journal of Molecular Sciences, 2024)

Legend:
Type in all cases: cell-based, human
Caco-2 [1] = assay: Intracellular GSH level, monochlorobimane (MCB) probe; conditions: compound at IC50, 24 h, vs control
Protocol: The spectrofluorimetric method with monochlorobimane (MCB; Sigma-Aldrich; St. Louis, MO, USA) was used to determine GSH. Monochlorobimane reacts with glutathione in a reaction catalyzed by cellular glutathione S-transferase. The reaction produces a fluorescent bimane-glutathione conjugate (GSH-MCB). A major advantage of MCB is its ability to penetrate the cell membrane, which is why it is used as a probe to determine the amount of GSH in living cells.
Cells were seeded in black 96-well fluorometric microplates at a density of 10 × 10^3 cells/mL. […] Following compound incubation, the medium was removed, and the cell monolayers were washed twice with HBSS (140 mM NaCl, 5 mM KCl, 0.8 mM MgCl2, 1.8 mM CaCl2, 1 mM Na2HPO4, 10 mM HEPES, and 1% glucose). A solution of MCB at a final concentration of 40 μM was added to each well and incubated in a CO2 cell culture incubator at 37 °C for 20 min. A 40 mM MCB stock solution was prepared by dissolving 9 mg of the reagent in 1 mL of absolute ethanol. Fluorescence was measured using a Perkin-Elmer LS-5B spectrofluorometer (Waltham, MA, USA) at the following excitation and fluorescence emission wavelengths: λex = 380 nm/λem = 470 nm. After incubation with MCB, the cells were lysed with 50 μL of lysis buffer (10 mM TRIS-HCl; pH 8 containing 0.1% Triton X-100). In order to normalize the number of cells in individual samples, the amount of DNA was determined by adding 50 μL of ethidium bromide (EB, final concentration 0.2 mM) to each well after measuring the MCB fluorescence and measuring the EB fluorescence at an excitation wavelength of λex = 530 nm and an emission wavelength of λem = 590 nm. The results obtained using the standard curve were converted to nM of GSH.

Caco-2 [2] = assay: Superoxide anion level, DHE probe; conditions: compound at IC50, 24 h, vs control
Protocol: (§1) Superoxide anion (O2^•−) levels were quantified using a microplate spectrofluorometric assay with dihydroethidium (DHE) (Life Technologies, Carlsbad, CA, USA). DHE is a well-established fluorogenic probe for intracellular superoxide detection. […] The reaction between superoxide and DHE produces a highly specific red fluorescent product, 2-hydroxyethidium (2-OH-E ^+).
(§2) Cells were seeded in black 96-well fluorometric microplates at a density of 10 × 10^3 cells/mL. […] Following compound incubation, the medium was removed, and the cell monolayers were washed twice with HBSS (140 mM NaCl, 5 mM KCl, 0.8 mM MgCl2, 1.8 mM CaCl2, 1 mM Na2HPO4, 10 mM HEPES, and 1% glucose). A volume of 50 µL of DHE solution in HBSS (final concentration 5 μM) was added to each well, and the cells were incubated for 30 min in the dark at 37 °C. After incubation with the DHE, fluorescence measurements were conducted using a Perkin-Elmer LS-5B spectrofluorometer (Waltham, MA, USA) at the following excitation and fluorescence emission wavelengths: λex = 498 nm/λem = 582 nm. The fluorescence intensity of control cells was arbitrarily assigned a value of 100%. The results were expressed as percentages of control, calculated by comparing the fluorescence intensity ratio of the test samples to controls (100%). The fluorescence of samples was denoted as Δf in relation to the control.

HCT 116 = assay: Superoxide anion level, DHE probe; conditions: compound at IC50, 24 h, vs control
Protocol: as §1, §2

SW620 [3] = assay: Superoxide anion level, DHE probe; conditions: compound at IC50, 24 h, vs control
Protocol: as §1, §2

SW620 [4] = assay: Reactive nitrogen species level, DAF-FM probe; conditions: compound at IC50, 24 h
Protocol: (§3) Diaminofluorescein-FM diacetate (DAF-FM diacetate, Invitrogen, Carlsbad, CA, USA), a cell-permeable fluorescent probe, is widely utilized for the detection and quantification of reactive nitrogen species (RNS), primarily nitric oxide (NO). […] Upon interaction with NO, however, it undergoes a chemical transformation resulting in the formation of a highly fluorescent benzotriazole derivative with excitation and emission maxima at 495 and 515 nm, respectively.
as §2, with “[…] Fluorescence” for “A volume of 50 µL of DHE solution in HBSS (final concentration 5 μM) was added to each well, and the cells were incubated for 30 min in the dark at 37 °C. After incubation with the DHE, fluorescence”, “(MA,” for “(Waltham, MA,”, “495” for “498”, “515” for “582”

HT-29 = assay: Reactive nitrogen species level, DAF-FM probe; conditions: compound at IC50, 24 h
Protocol: as §3
as §2, with “[…] Fluorescence” for “A volume of 50 µL of DHE solution in HBSS (final concentration 5 μM) was added to each well, and the cells were incubated for 30 min in the dark at 37 °C. After incubation with the DHE, fluorescence”, “(MA,” for “(Waltham, MA,”, “495” for “498”, “515” for “582”

SW620 [5] = assay: MTT test after pre-incubation with antioxidants NAC or Trolox; conditions: vs cells without antioxidant pre-incubation
Protocol: Moreover, the elevation of ROS levels was accompanied by a decrease in intracellular GSH. To investigate the role of ROS in the cytotoxic activity of flavonoid derivatives against cancer cells, LoVo cancer cells were pre-treated with antioxidants, NAC or a water-soluble derivative of vitamin E (Trolox), for 1 h before exposure to the studied compounds. Subsequently, the MTT assay was performed.
To elucidate the involvement of ROS in the cytotoxic effects of the investigated compounds, cells were pre-treated with the vitamin E (Trolox, Sigma-Aldrich, St. Louis, MO, USA) or N-Acetylcysteine (NAC) antioxidants for 1 h. Cells were seeded into sterile, colorless 96-well microplates at a density of 6–8 × 10^3 cells/mL, contingent upon the cell line. Following a 24 h culture period, Trolox or NAC was added at a final concentration of 50 μM and 3 mM, respectively. After 1 h of incubation, the antioxidants were removed by washing, and test compounds were administered at appropriate concentrations (10–200 μM) in fresh cell culture medium, followed by a 24 h incubation. The MTT assay was then conducted under identical experimental conditions, as detailed in Section 2.2.

Compound | Decrease in GSH levels (Caco-2 [1]) | Increase in O2−• (superoxide anion) levels (Caco-2 [2]) [%] | Increase in O2−• (superoxide anion) levels (HCT 116) | Increase in O2−• (superoxide anion) levels (SW620 [3]) | Change in RNS levels (SW620 [4]) | Change in RNS levels (HT-29) | Change of the IC50 value after pre-incubation with Trolox (SW620 [5])
O=C1/C(=C/c2ccccc2)COc2ccccc21 [Compound 1] | 25–30% | 30 | 10–15% | 10–15% | significantly increased RNS levels | significantly increased RNS levels | 
O=C1/C(=C/c2ccccc2)C(c2ccccc2)Oc2ccccc21 (stereo not shown) [Compound 5] |  |  |  |  |  |  | Statistically significant increases in the IC50 value
